Bounds are passed on as bounds.

Experiment [1] has as its target T1, SMYD3 (Homo sapiens (Human), UniProt Q9H7B4). Nature of the experiment: SMYD3 cell assay (Trimethyl-MEKK2 In-Cell Western in 293T/17 cells). The note with it: read-out: SMYD3 Cell IC50*. Format: cell-based. Summed up:
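In-Cell Western ratio of trimethyl-Lys260 MEKK2 to anti-flag signal; percent inhibition from DMSO and maximum-inhibition controls, IC50 by non-linear regression, triplicates.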

Experiment [2] deals with T1, SMYD3. The experiment is described as follows: SMYD3 biochemical assay (SPA, 3H-SAM methylation of MEKK2 protein substrate). The settings on record: read-out: SMYD3 Biochem IC50*. Summed up:
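Full-length native human SMYD3 (E. coli-expressed, tags removed) preincubated with compounds 30 min at room temperature, then reaction started with 3H-SAM and GST-tagged MEKK2 protein in 25 mM Tris-Cl pH 8.0, 1 mM TCEP, 0.005% BSG, 0.005% Tween 20. Quenched with unlabelled SAM (100 uM final); 3H-MEKK2 counted by SPA.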

The mark [3] stands for this setting: IC50 values are an average of n = 1 to n = 50.

T1 sequence (Q9H7B4 whole entry): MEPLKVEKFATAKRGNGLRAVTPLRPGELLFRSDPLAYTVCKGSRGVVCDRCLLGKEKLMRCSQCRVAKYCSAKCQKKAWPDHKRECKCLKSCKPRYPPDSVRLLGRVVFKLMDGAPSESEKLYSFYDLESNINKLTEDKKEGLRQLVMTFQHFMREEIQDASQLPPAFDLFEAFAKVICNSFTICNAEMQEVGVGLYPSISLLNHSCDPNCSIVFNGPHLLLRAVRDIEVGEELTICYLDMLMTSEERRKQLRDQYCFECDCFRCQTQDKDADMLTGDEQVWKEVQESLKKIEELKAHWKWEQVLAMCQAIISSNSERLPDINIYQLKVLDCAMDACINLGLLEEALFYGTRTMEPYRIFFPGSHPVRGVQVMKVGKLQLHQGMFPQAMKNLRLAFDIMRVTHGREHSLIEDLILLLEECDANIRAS

Turning to `C[C@H]1C[C@@H](NC(=O)c2cc(C3CC3)on2)CCN1S(=O)(=O)N1CCNC[C@H]1c1ccccc1` [compound 960, 5-cyclopropyl-N-((2S,4S)-2-methyl-1-(((R)-2-phenylpiperazin-1-yl)sulfonyl)piperidin-4-yl)isoxazole-3-carboxamide], the results for the IC50 at SMYD3 [1] and on SMYD3 [2] were 1.35 µM and 0.0806 µM, respectively.

As for `CN(CCC(F)(F)F)C1CCN(S(=O)(=O)N2[C@@H]3CC[C@H]2C[C@@H](NC(=O)c2cc(C4CC4)on2)C3)CC1` [compound 961, 5-cyclopropyl-N-((1R,3r,5S)-8-((4-(methyl(3,3,3-trifluoropropyl)amino)piperidin-1-yl)sulfonyl)-8-azabicyclo[3.2.1]octan-3-yl)isoxazole-3-carboxamide], the IC50 (usually the midpoint of a concentration-inhibition curve) at SMYD3 [1] is 0.364 µM; at SMYD3 [2], 0.0816 µM.

For the compound `CNC(C)(C)c1ccc(S(=O)(=O)N2[C@@H]3CC[C@H]2C[C@@H](NC(=O)c2cc(C4CC4)on2)C3)cc1` [compound 962, 5-cyclopropyl-N-((1R,3r,5S)-8-((4-(2-(methylamino)propan-2-yl)phenyl)sulfonyl)-8-azabicyclo[3.2.1]octan-3-yl)isoxazole-3-carboxamide], the IC50 at SMYD3 [1] came out at 0.695 µM; at SMYD3 [2] it was 0.0818 µM.

With `CCC1CN(C)CCN1S(=O)(=O)N1[C@@H]2CC[C@H]1C[C@@H](NC(=O)c1cc(C3CC3)on1)C2` (stereo partly drawn) [compound 963, 5-cyclopropyl-N-((1R,3r,5S)-8-((2-ethyl-4-methylpiperazin-1-yl)sulfonyl)-8-azabicyclo[3.2.1]octan-3-yl)isoxazole-3-carboxamide], the IC50 was 0.69 µM at SMYD3 [1] and 0.0829 µM at SMYD3 [2].

Turning to `CN1CCCC[C@@H]1CS(=O)(=O)N1[C@@H]2CC[C@H]1C[C@@H](NC(=O)c1cc(C3CC3)on1)C2` [compound 964, 5-cyclopropyl-N-((1R,3R,5S)-8-((((R)-1-methylpiperidin-2-yl)methyl)sulfonyl)-8-azabicyclo[3.2.1]octan-3-yl)isoxazole-3-carboxamide], the IC50 at SMYD3 [1] turned out to be 0.45 µM; on SMYD3 [2] it was 0.083 µM.

Take `CCCc1cc(C(=O)N[C@H]2C[C@H]3CC[C@@H](C2)N3S(=O)(=O)CC2CCN(C)CC2)no1` [compound 965, N-((1R,3r,5S)-8-(((1-methylpiperidin-4-yl)methyl)sulfonyl)-8-azabicyclo[3.2.1]octan-3-yl)-5-propylisoxazole-3-carboxamide]: the IC50 at SMYD3 [1] was 1.31 µM; on SMYD3 [2], 0.0853 µM.

`O=C(N[C@H]1CCN(S(=O)(=O)N2CCNCC2)[C@@H](Cc2ccccc2)C1)c1cc(C2CC2)on1` [compound 966, N-((2S,4S)-2-benzyl-1-(piperazin-1-ylsulfonyl)piperidin-4-yl)-5-cyclopropylisoxazole-3-carboxamide]: the IC50 was determined as 1.2 µM at SMYD3 [1] and 0.0868 µM on SMYD3 [2].

On to `O=C(N[C@H]1C[C@H]2CC[C@@H](C1)N2S(=O)(=O)N1CC2CCC(C1)N2CCN1CCOCC1)c1cc(C2CC2)on1` [compound 967, 5-cyclopropyl-N-((1R,3r,5S)-8-((8-(2-morpholinoethyl)-3,8-diazabicyclo[3.2.1]octan-3-yl)sulfonyl)-8-azabicyclo[3.2.1]octan-3-yl)isoxazole-3-carboxamide], for which the IC50 amounted to 0.503 µM on SMYD3 [1] (setting [3]) and 0.087 µM on SMYD3 [2] (setting [3]).

Turning to `NCc1ccc(S(=O)(=O)N2[C@@H]3CC[C@H]2C[C@@H](NC(=O)c2cc(C4CC4)on2)C3)c(Cl)c1` [compound 968, N-((1R,3r,5S)-8-((4-(aminomethyl)-2-chlorophenyl)sulfony1)-8-azabicyclo[3.2.1]octan-3-yl)-5-cyclopropylisoxazole-3-carboxamide], the IC50 was not below 10 µM on SMYD3 [1] (setting [3]) and 0.0883 µM on SMYD3 [2] (setting [3]).

On to `CN1CCC[C@@H]1CS(=O)(=O)N1[C@@H]2CC[C@H]1C[C@@H](NC(=O)c1cc(C3CC3)on1)C2` [compound 969, 5-cyclopropyl-N-((1R,3R,5S)-8-((((R)-1-methylpyrrolidin-2-yl)methyl)sulfonyl)-8-azabicyclo[3.2.1]octan-3-yl)isoxazole-3-carboxamide], for which the IC50 is 0.44 µM on SMYD3 [1] (setting [3]) and 0.0886 µM on SMYD3 [2] (setting [3]).

Regarding `CCc1cc(C(=O)N[C@H]2C[C@H]3CC[C@@H](C2)N3S(=O)(=O)c2ccc(C(C)(C)N)cc2)no1` [compound 970, N-((1R,3r,5S)-8-((4-(2-aminopropan-2-yl)phenyl)sulfonyl)-8-azabicyclo[3.2.1]octan-3-yl)-5-ethylisoxazole-3-carboxamide], the IC50 on SMYD3 [1] (setting [3]) was determined as 0.748 µM; at SMYD3 [2] (setting [3]), 0.0893 µM.

Regarding `O=C(N[C@H]1C[C@H]2CC[C@@H](C1)N2S(=O)(=O)C[C@H]1CCCCN1)c1cc(C2CC2)on1` [compound 971, 5-cyclopropyl-N-((1R,3R,5S)-8-((((R)-piperidin-2-yl)methyl)sulfonyl)-8-azabicyclo[3.2.1]octan-3-yl)isoxazole-3-carboxamide], the 50% inhibitory concentration (IC50) on SMYD3 [1] (setting [3]) came out at 0.466 µM; on SMYD3 [2] (setting [3]) it was 0.0909 µM.

As for `C[C@H]1C[C@@H](NC(=O)c2cc(C3CC3)on2)CCN1S(=O)(=O)N1CCC(NC(C)(C)c2ccccc2)CC1` [compound 972, 5-cyclopropyl-N-((2S,4S)-2-methyl-1-((4-((2-phenylpropan-2-yl)amino)piperidin-1-yl)sulfonyl)piperidin-4-yl)isoxazole-3-carboxamide], the results for the IC50 at SMYD3 [1] (setting [3]) and on SMYD3 [2] (setting [3]) were 1.27 µM and 0.0933 µM, respectively.

In the case of `CN(CCN1CCOCC1)C1CCN(S(=O)(=O)N2[C@@H]3CC[C@H]2C[C@@H](NC(=O)c2cc(C4CC4)on2)C3)CC1` [compound 973, 5-cyclopropyl-N-((1R,3r,5S)-8-((4-(methyl(2-morpholinoethyl)amino)piperidin-1-yl)sulfonyl)-8-azabicyclo[3.2.1]octan-3-yl)isoxazole-3-carboxamide], the values for the IC50 on SMYD3 [1] (setting [3]) and on SMYD3 [2] (setting [3]) were 1.02 µM and 0.0953 µM, respectively.

For the compound `CC[C@@H]1CN(S(=O)(=O)N2CC[C@H](NC(=O)c3cc(C4CC4)on3)C[C@@H]2C)CCN1` [compound 974, 5-cyclopropyl-N-((2S,4S)-1-(((R)-3-ethylpiperazin-1-yl)sulfonyl)-2-methylpiperidin-4-yl)isoxazole-3-carboxamide], the IC50 stood at 0.807 µM at SMYD3 [1] (setting [3]) and 0.099 µM at SMYD3 [2] (setting [3]).

Consider `CC(C)C1CNCCN1S(=O)(=O)N1CC[C@H](NC(=O)c2cc(C3CC3)on2)C[C@@H]1C` (stereo partly drawn) [compound 975, 5-cyclopropyl-N-((2S,4S)-1-((2-isopropylpiperazin-1-yl)sulfonyl)-2-methylpiperidin-4-yl)isoxazole-3-carboxamide], for which the IC50 on SMYD3 [1] (setting [3]) worked out at 0.914 µM; at SMYD3 [2] (setting [3]), 0.101 µM.

Regarding `CN1CCCC[C@H]1CS(=O)(=O)N1[C@@H]2CC[C@H]1C[C@@H](NC(=O)c1cc(C3CC3)on1)C2` [compound 976, 5-cyclopropyl-N-((1R,3S,5S)-8-((((S)-1-methylpiperidin-2-yl)methyl)sulfonyl)-8-azabicyclo[3.2.1]octan-3-yl)isoxazole-3-carboxamide], the values for the IC50 at SMYD3 [1] (setting [3]) and at SMYD3 [2] (setting [3]) were 0.555 µM and 0.105 µM, respectively.

Regarding `CN1CC2CCC(C1)N2S(=O)(=O)N1[C@@H]2CC[C@H]1C[C@@H](NC(=O)c1cc(C3CC3)on1)C2` [compound 977, 5-cyclopropyl-N-((1R,3r,5S)-8-((3-methyl-3,8-diazabicyclo[3.2.1]octan-8-yl)sulfonyl)-8-azabicyclo[3.2.1]octan-3-yl)isoxazole-3-carboxamide], the IC50 at SMYD3 [1] (setting [3]) stood at 0.742 µM; on SMYD3 [2] (setting [3]), 0.107 µM.

The record behind these values is patent US10577363B2, “Substituted piperidine compounds” (EPIZYME, INC., priority 2014, dated 2020).
